Results taken from US20110152214A1, “SILK POLYMER-BASED ADENOSINE RELEASE: THERAPEUTIC POTENTIAL FOR EPILEPSY” (TRUSTEES OF TUFTS COLLEGE, priority 2008, published 2011).
Entries after “also recorded” stand apart in the source; their conditions may differ.

Experiments:
fully kindled rats [1] = experiment: Experiment 1: suppression of kindled seizures by polymer-based adenosine release; assay type: in vivo, rat
Excerpt: Experiment 1: Four days after surgery, the animals were stimulated unilaterally six times every second or third day with a Grass S-88 stimulator (1-ms square-wave pulses of 5 V at 50-Hz frequency for 10 s, 30-min interval between stimulations; these stimulations corresponded to about 350 μA, whereas the afterdischarge thresholds before kindling were in the range of 115 μA). Behavioral seizures were scored according to the scale of Racine (Racine, 1978). The electroencephalogram (EEG) was recorded for periods of 1 min before and 5 min after application of each stimulating pulse using a Nervus EEG monitoring system. Stimulations on each day were discontinued whenever a stage 5 seizure on that day was reached. Eventually, all animals reacted with a stage 5 seizure at the first (and then only) daily stimulation. After three stage 5 seizures elicited by the first stimulation on three subsequent kindling-days animals were considered to be fully kindled (i.e. reproducibility of stage 5 seizure activity after stimulation). […] Only animals that fulfilled these stringent kindling criteria were used for the subsequent experiments. Polymers were implanted into these fully kindled animals. Implant recipients received one test-stimulation each on day 4, 6, 10, 14, 18, and 21 after polymer implantation and were then subjected to histological analysis. […]

rat kindling model [2] = experiment: Experiment 2a: kindling on days 4, 6, 8, 11 after implantation, then DPCPX test; assay type: in vivo; conditions: 1 mg/kg, i.p., 30 min prior to stimulation, day twelve
Excerpt: Experiment 2: Polymer implantation (see below) was combined with electrode implantation (see above) in the same surgery. Experiment 2a: Kindling was initiated four days after polymer implantation with the animals receiving 6 kindling stimulations (1-ms square-wave pulses of 5 V at 50-Hz frequency for 10 sec, 30-min interval between stimulations) each on day 4, 6, 8, and 11 after implantation; this amounted to a total of 24 stimulations. […] Twenty-four (24) hr after this drug test all animals were stimulated again once before being sacrificed for histological analysis. Experiment 2b (FIG. 3): Kindling was initiated four days after polymer implantation with the animals receiving six kindling stimulations each on days 4, 5, 6, 7, and 8, after implantation; this amounted to a total of 30 stimulations. In these incompletely kindled adenosine-implant recipients further stimulations were suspended until adenosine release from the polymers had expired (from day eighteen onwards). Kindling stimulations were resumed on days 18, 19, 20, 21, and 22 after implantation (6 stimulations/day; total of 30 additional stimulations). Afterwards the animals were sacrificed for histological analysis. […]

fully kindled rats [3] = conditions: Boison et al. 2002; Güttinger et al. 2005; Huber et al. 2001; cited from earlier work
rat kindling model [4] = assay type: in vivo
Experimental: Anesthesia was induced with 3% isoflurane, 67% N2O, 30% O2 and maintained with 1.5% isoflurane, 68.5% N2O, 30% O2, while rats (N=22) were placed in a Kopf stereotactic frame. […]
Four days after surgery, the animals were stimulated unilaterally six times every second or third day with a Grass S-88 stimulator (1-ms square-wave pulses of 5V at 50-Hz frequency for 10 sec; 30 min-interval between stimulations). Behavioral seizures were scored according to the scale of Racine (3(2) Neurosurg. 234-52 (1978)). […] The electroencephalogram (EEG) was recorded for periods of 1 min before and 5 min after application of each stimulating pulse using a Nervus EEG monitoring system. […]
Seizure scores were determined after each stimulation according to the scale of Racine (1978). […]

rat kindling model [5] = conditions: Silver et al., 1991; cited from earlier work

OC[C@H]1O[C@@H](n2cnc3c(NC4CCCC4)nc(Cl)nc32)[C@H](O)[C@@H]1O [CCPA, 2-chloro-N(6)-cyclopentyladenosine]
seizure response to test stimulation (fully kindled rats [1]; 3 mg/kg i.p., 30 min prior to test stimulation, before polymer implantation): complete seizure suppression

CCCn1c(=O)c2[nH]c(C3CCCC3)nc2n(CCC)c1=O [DPCPX, 8-cyclopentyl-1,3-dipropylxanthine]
seizure stage elicited in an ADO-polymer treated rat after DPCPX (fully kindled rats [1]; 1 mg/kg, i.p., 30 min after injection, day three): 5 | effect of DPCPX on seizure score in adenosine-releasing implant recipients (rat kindling model [2]): failed to elicit control group-like seizures; also recorded: did not increase the seizure score; also recorded: failed to increase seizure scores | seizures elicited by DPCPX paired with kindling stimulations (fully kindled rats [3]): readily elicits stage 5 seizures

Nc1ncnc2c1ncn2[C@@H]1O[C@H](CO)[C@@H](O)[C@H]1O [adenosine]
doses sufficient to suppress kindling (rat kindling model [4]; focal infrahippocampal release, from Table 3): around 400 ng adenosine/day | tolerability of high doses, gross behavioral changes (rat kindling model [4]; rat, in vivo): well tolerated

NC(=O)N1c2ccccc2C=Cc2ccccc21 [carbamazepine]
effect on kindling development / antiepileptogenesis (rat kindling model [5]): did not affect kindling development during the drug-phase
